Like-named read-outs stand apart in the source and are kept apart here.
Assays:
CD34^+ cells [1] = assay: Ex vivo culture of human CD34+ cells with PGE2, PD-L1 expression by FACS; assay type: cell-based
Method: CD34^+ cells were isolated from patients (20 ml of blood) using magnetic beads and ˜1×10^6 cells were plated in a U-bottom 96-well plate with 200 μl of the indicated medium. STFIA medium was defined as serum-free medium supplemented with 10 μg/ml heparin, 10 ng/ml human SCF, 20 ng/ml human TPO, 10 ng/ml human FGF-1, 100 ng/ml IGFBP2, and 500 ng/ml Angptl3. PGE2 was added the culture at 0 h, 24 h, 72 h and 6 days. An aliquot of 2 μl of diluted PGE2 at a concentration of 10 μM was added to the 200 μl of each well in the 96-well plate. The approximate final concentration of PGE2 in each well is 0.1 μM. Therefore, the cells are exposed to ˜0.1 μM of PGE2. The periodic addition of PGE2 at 24 h, 72 h and 6 days serves to maintain the PGE2 in the culture media. Cells were cultured for 7 days at 37° C. in 5% CO2 and the normal level of O2.
Alternatively, cells are cultured in the same conditions for 48 h in the absence of PGE2, after which and PGE2 is added and then later at 24 h after the initial additional. PGE2 is added to the same approximate final concentration of PGE2 of 0.1 μM. We typically observed a ˜10-fold increase of CD34^+PD-L1^+ of cells after 8 days of culture when compared with a cell culture with the same medium cultured for the same time in the same conditions with cells obtained from the same subjects but without addition of PGE2.
Human – human HSCs were cultured using StemSpan supplemented with human stem cell growth factors as previously reported (22). Briefly, CD34^+ cells were plated at 5×10^5 cells/ml in supplemented StemSpan on a 96-well plate, at 200 μl/well for 7 days. HSCs were pulsed with PGE2 as described in murine experiments. PD-L1^+ HSCs were quantified by FACS analysis at different timepoints and at the end of the procedure.

KLS cells = assay: In vitro culture of murine KLS cells with PGE2, PD-L1+ HSCs by FACS; assay type: cell-based; settings: KLS of B6 and NOD mice; PGE2 (2 μl, 10 μM); after 8 days
Method: (§1) We evaluated the characteristics of CXCR4 antagonist-mobilized HSCs by FACS analysis. Lin^−c-Kit^+Sca-1^+ cells were sorted from islet-transplanted or naïve CXCR4 antagonist-treated mice after 7 and 14 days of treatment. […] To evaluate the immunoregulatory role of PD-L1 in murine HSCs, we investigated the effect of mobilized HSCs from WT and PD-L1 KO mice on the alloimmune response in vitro. A standard MLR assay was performed in which HSCs (from WT B6 or PD-L1 KO mice) were syngeneic to responder cells (CD4^+ cells from B6) but allogeneic to bone marrow-derived DCs (from BALB/c). […] The percentage of peripheral PD-L1^+ KLS in 10-week-old NOD and B6 mice was evaluated by FACS. […] We performed a pilot study to assess the feasibility of generation of PD-L1^+ HSCs in vitro by pharmacologic approach. KLS cells were isolated from splenocytes of B6 and NOD mice by magnetic beads and cultured with standard stem cell medium plus PGE2 (2 μl, 10 μM).

CD34^+ cells [2] = tested on: CD34^+ cells
Text: To assess whether mobilization alters expression of PD-L1 on HSCs we studied the immune phenotype of HSCs before and after mobilization with anti-CXCR4 in 5 healthy subjects and 8 individuals with T1D.
Blood samples were obtained from new onset diabetic individuals (New-onset T1D), long-standing diabetic individuals (T1D) and healthy individuals (CTRL) in accordance with The San Raffaele Scientific Research Institute under an Institutional Review Board committee approval. Peripheral blood mononuclear cells (PBMC) fractions were isolated by Ficoll density gradient centrifugation for cell culturing experiments. Additional blood samples were obtained from T1D subjects and CTRL at baseline before treatment and 6 hours after treatment with CXCR4-antagonist (Mozobil; Sanofi) at the dose of 0.24 mg/kg body weight in accordance with the Institution Review Board Committee of Padova (2996P) and was performed in accordance with the Declaration of Helsinki (Clinical trial registered on clinicaltrials.gov (NCT02056210)). Patients with Type 1 Diabetes aged 18-65 years were recruited among those referred to the diabetes outpatient clinic of the University Hospital of Padova. Individuals without diabetes aged 18-65 years were recruited from those referred to the same outpatient clinic for screening of other metabolic diseases. All provided written informed consent. […] Women with childbearing potential could participate in the study if on oral contraception, and a negative pregnancy test was required before study entry. […] All medications for the treatment of diabetes and for other medical conditions were allowed during the study.
To assess PD-L1, PD-L2 and PD-1 expression on human HSCs, fresh blood collected from healthy individuals, T1D and new-onset T1D individuals was stained with PE-Cy5.5 anti-human CD34, PE anti-human PD-L1 or PD-L2 or PD-1 (BD Biosciences). […]

[3] = tested on: Lin^−c-Kit^+Sca-1^+ cells
Method: as §1

CD34+ cells = assay: HSC mobilization with hrG-CSF (trial NCT01102699); assay type: in vivo, human; settings: 5 μg/kg
[4] = after 7 and 14 days of treatment

With CCCCC[C@H](O)/C=C/[C@H]1[C@H](O)CC(=O)[C@@H]1C/C=C\CCCC(=O)O [PGE2, prostaglandin E2] the “increase in the percentage of PD-L1^+ HSCs” value (CD34^+ cells [1]; CD34+ cells of T1D individuals (n=10), after 7 days) was about 8 times fold, the “increased expression of PD-L1 as compared to baseline” value (CD34^+ cells [1]; PGE2 culture protocol) was “at least 5 fold” and the “increase of CD34^+PD-L1^+ of cells” value (CD34^+ cells [1]; PGE2 ~0.1 μM, after 8 days of culture vs same culture without PGE2) was about 10 fold. The “increase in the PD-L1^+ HSCs” value (KLS cells) was about 30 % fold.

For c1cc(CN2CCCNCCNCCCNCC2)ccc1CN1CCCNCCNCCCNCC1 [CXCR4 antagonist, plerixafor], the “percentage of CD34^+ PD-L1^+ cells after mobilization” value (CD34^+ cells [2]; 5 controls and 8 T1D individuals) was “decrease”, the “PD-L1 expression on CD34^+ cells after mobilization” value (CD34^+ cells [2]; T1D individuals (n=8), before 1.5±0.8) was 4.7±1.5 and the “PD-L1 expression on CD34^+ cells after mobilization” value (CD34^+ cells [2]; healthy subjects (n=5), before 0.6±0.2) was 6.2±0.6. For the same molecule, the “PD-L1^+ HSCs in bone marrow” value ([3]; B6 islet-transplanted mice, 6 h after initiation of treatment) was “did not increase”, the “CXCR4 expressed by extracted HSCs” value [3, 4] was 38.4±4.2% and the “PD-L1 expressed by mobilized HSCs” value [3, 4] was 58.0±7.1%.

B1: hrG-CSF: granulocyte colony stimulating factor (protein, UniProt P09919 31-207, looked up)
Granulocyte …: TPLGPASSLPQSFLLKCLEQVRKIQGDGAALQEKLVSECATYKLCHPEELVLLGHSLGIPWAPLSSCPSQALQLAGCLSQLHSGLFLYQGLLQALEGISPELGPTLDTLQLDVADFATTIWQQMEELGMAPALQPTQGAMPAFASAFQRRAGGVLVASHLQSFLEVSYRVLRHLAQP
B1 was tested, and the “CD34+ cell mobilization” value (CD34+ cells; T1D individuals) was “impaired mobilization” and the “CD34+ cell mobilization” value (CD34+ cells; healthy controls) was “significantly increased”.

— US10751373B2, “PD-L1 expressing hematopoietic stem cells and uses” (The Children's Medical Center Corporation, priority 2015, dated 2020)
